The first assay concerns the target T1, c-kit (Homo sapiens, UniProt P10721).
T1 construct: human Mo7e cells which endogenously express c-kit; endogenous in cells; host or cells: human Mo7e cells (promegakaryocytic leukemia line), stimulated with human recombinant SCF
As to the kind of experiment: Mo7e cell proliferation assay (SCF dependent proliferation). It counts as cell-based. Conditions: Table 1; human Mo7e cells stimulated with SCF, 48 hours, CellTiter Glo; 1% FBS; read-out: c-kit (Mo7e). Put shortly:
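Human Mo7e cells with endogenous c-kit, proliferation driven by SCF, 384-well format. After 48 h at 37 °C viability read by CellTiter-Glo luminescence. IC50 taken as concentration giving response halfway between baseline and maximum.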
T1 sequence (P10721 26-976): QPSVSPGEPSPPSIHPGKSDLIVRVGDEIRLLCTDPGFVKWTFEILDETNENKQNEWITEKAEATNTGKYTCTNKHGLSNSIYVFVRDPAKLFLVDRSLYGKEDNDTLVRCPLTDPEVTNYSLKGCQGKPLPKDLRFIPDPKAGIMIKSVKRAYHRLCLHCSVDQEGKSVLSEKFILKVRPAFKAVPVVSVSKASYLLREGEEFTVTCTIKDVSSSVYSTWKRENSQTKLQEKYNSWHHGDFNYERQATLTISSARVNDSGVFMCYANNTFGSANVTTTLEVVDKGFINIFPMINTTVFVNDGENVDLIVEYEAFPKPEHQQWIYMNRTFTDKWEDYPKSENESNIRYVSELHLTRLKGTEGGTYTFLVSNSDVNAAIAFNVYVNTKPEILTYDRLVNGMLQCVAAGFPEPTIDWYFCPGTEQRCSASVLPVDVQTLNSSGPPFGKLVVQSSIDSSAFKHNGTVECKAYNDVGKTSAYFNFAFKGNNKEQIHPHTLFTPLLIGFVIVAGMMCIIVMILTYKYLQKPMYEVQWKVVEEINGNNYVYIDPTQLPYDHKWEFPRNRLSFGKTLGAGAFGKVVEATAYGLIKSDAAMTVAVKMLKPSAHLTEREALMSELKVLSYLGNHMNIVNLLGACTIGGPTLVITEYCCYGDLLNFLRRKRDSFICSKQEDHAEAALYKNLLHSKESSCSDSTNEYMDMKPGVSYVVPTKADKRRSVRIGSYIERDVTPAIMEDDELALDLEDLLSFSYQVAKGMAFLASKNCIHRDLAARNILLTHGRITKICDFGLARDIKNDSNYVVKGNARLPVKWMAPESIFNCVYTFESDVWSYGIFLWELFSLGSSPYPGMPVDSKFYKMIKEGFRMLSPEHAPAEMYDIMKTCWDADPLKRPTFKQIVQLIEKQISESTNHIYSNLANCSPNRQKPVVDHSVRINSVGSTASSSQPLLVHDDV
With `COC(=O)N1CCCCC1c1nc(-c2ccc(C)c(NC(=O)c3cnc4ccccn34)c2)no1` (stereo not shown) [F9], the IC50 was determined as 0.035 µM.
On to `Cc1ccc(-c2noc([C@@H]3CCN3S(C)(=O)=O)n2)cc1NC(=O)c1cnc2ccccn12` [F25], for which the IC50 came out at 0.046 µM.
As for `COC(=O)N1CC(c2nc(-c3ccc(C)c(NC(=O)c4cnc5cc(C(F)(F)F)ccn45)c3)no2)C1` [F57, methyl 3-(3-(4-methyl-3-(7-(trifluoromethyl)imidazo[1,2-a]pyridine-3-carboxamido)phenyl)-1,2,4-oxadiazol-5-yl)azetidine-1-carboxylate], the IC50 is 0.13 µM.
On the same count and under the same terms, the figure for `COC(=O)N1CC(c2nc(-c3ccc(C)c(NC(=O)c4cnc5ccc(CCCC#N)cn45)c3)no2)C1` [F59, methyl 3-(3-(3-(6-(3-cyanopropyl)imidazo[1,2-a]pyridine-3-carboxamido)-4-methylphenyl)-1,2,4-oxadiazol-5-yl)azetidine-1-carboxylate] is 0.033 µM.
The same measure, in the same setting: in the case of `[2H]C([2H])([2H])c1ccn2c(C(=O)Nc3cc(-c4noc(C5CN(C(=O)OC)C5)n4)ccc3C)cnc2c1` [F80, methyl 3-(3-(4-methyl-3-(7-methyl-d3-imidazo[1,2-a]pyridine-3-carboxamido)phenyl)-1,2,4-oxadiazol-5-yl)azetidine-1-carboxylate] it was 0.044 µM.
Consider `Cc1ccc(-c2noc(CC3CCOCC3)n2)cc1NC(=O)c1cnc2ccccn12` [F17], for which the IC50 was 0.027 µM.
As to `Cc1ccc(-c2noc([C@@H]3CCN3C(=O)OC(C)(C)C)n2)cc1NC(=O)c1cnc2ccccn12` [F24], the IC50 amounted to 0.08 µM.
On the same count and under the same terms, in the case of `COC(=O)N1CC(c2nc(-c3ccc(C)c(NC(=O)c4cnc5cc(CCC(C)=O)ccn45)c3)no2)C1` [F73, methyl 3-(3-(4-methyl-3-(7-(3-oxobutyl)imidazo[1,2-a]pyridine-3-carboxamido)phenyl)-1,2,4-oxadiazol-5-yl)azetidine-1-carboxylate] it was 0.03 µM; in that of `Cc1ccc(-c2noc([C@H]3CN(S(C)(=O)=O)CCO3)n2)cc1NC(=O)c1cnc2ccccn12` [F37], 0.06 µM; in that of `Cc1ccc(-c2noc(C3CN(C(=O)OC(C)(C)C)C3)n2)cc1NC(=O)c1cnc2ccccn12` [F13, tert-butyl 3-(3-(3-(imidazo[1,2-a]pyridine-3-carboxamido)-4-methylphenyl)-1,2,4-oxadiazol-5-yl)azetidine-1-carboxylate], 0.623 µM.
Same read-out and setting: in the case of `Cc1ccc(-c2noc(C3CN(S(=O)(=O)C(F)F)C3)n2)cc1NC(=O)c1cnc2ccccn12` [F43] it was 0.024 µM; in that of `COC(=O)N1CC(c2nc(-c3ccc(C)c(NC(=O)c4cnc5ccc(COCC(F)F)cn45)c3)no2)C1` [F95, methyl 3-(3-(3-(6-((2,2-difluoroethoxy)methyl)imidazo[1,2-a]pyridine-3-carboxamido)-4-methylphenyl)-1,2,4-oxadiazol-5-yl)azetidine-1-carboxylate], 0.019 µM.
With `COC(=O)N1CC(c2nc(-c3ccc(C)c(NC(=O)c4cnn5ccccc45)c3)no2)C1` [F48], the IC50 was found to be 0.08 µM.
`COC(=O)N1CC(c2nc(-c3ccc(C)c(NC(=O)c4cnc5ccc(COCC(F)(F)F)cn45)c3)no2)C1` [F84]: the IC50 stood at 0.038 µM.

The same assay, now with this note: Table 2; human Mo7e cells stimulated with SCF, 48 hours, CellTiter Glo; 1% FBS; read-out: c-kit (Mo7e).
`Cc1ccc(-c2noc(CN3CC(O)C3)n2)cc1NC(=O)c1cnc2ccccn12` [F131]: the IC50 is 0.738 µM.
As for `COC(=O)N1CC(c2nc(-c3ccc(C)c(NC(=O)c4cnc5ccc(C(C)(C)O)cn45)c3)no2)C1` [F246], the IC50 was 0.317 µM.
`COC(=O)NC1(c2nc(-c3ccc(C)c(NC(=O)c4cnc5ccccn45)c3)no2)COC1` [F140]: the IC50 is 0.103 µM.
In the case of `COC(=O)N1CCC[C@H](c2nc(-c3ccc(C)c(NC(=O)c4cnc5ccccn45)c3)no2)C1` [F208], the IC50 was 0.134 µM.
With `Cc1ccc(-c2noc(C3CN(S(=O)(=O)C4CCOC4)C3)n2)cc1NC(=O)c1cnc2ccccn12` (stereo not shown) [F159], the IC50 was found to be 0.157 µM.
Turning to `Cc1ccc(-c2noc(C3CCN(C(=O)OC(C)(C)C)CC3)n2)cc1NC(=O)c1cnc2ccccn12` [F105], the IC50 is 0.505 µM.
In the case of `Cc1ccc(-c2noc(C3CN(C(=O)OC(C)(C)C)CCO3)n2)cc1NC(=O)c1cnc2ccccn12` (stereo not shown) [F175], the IC50 was 0.728 µM.
Consider `COC(=O)N1CC(c2nc(-c3ccc(C)c(NC(=O)c4cnc5ccc(C#N)cn45)c3)no2)C1` [F236], for which the IC50 was found to be 0.103 µM.
Still for that read-out and setting: in the case of `Cc1ccc(-c2noc(C3CN(C(=O)OCCN4CCOCC4)C3)n2)cc1NC(=O)c1cnc2ccccn12` [F134] it was 0.892 µM; in that of `Cc1ccc(-c2noc(CN3CC(C#N)C3)n2)cc1NC(=O)c1cnc2ccc(-c3cnn(C)c3)cn12` [F256], 0.106 µM.
Consider `Cc1ccc(-c2noc(C3CN(S(=O)(=O)NC(=O)OC(C)(C)C)C3)n2)cc1NC(=O)c1cnc2ccccn12` [F133], for which the IC50 is 0.138 µM.
The same measure, in the same setting: the figure for `COC(=O)N1CC(c2nc(-c3ccc(C)c(NC(=O)c4cnc5ccc(C(C)=O)cn45)c3)no2)C1` [F245] is 0.178 µM; for `Cc1ccc(-c2noc(C3CCNCC3)n2)cc1NC(=O)c1cnc2ccccn12` [F290] it is 1.89 µM; for `O=C(Nc1cc(-c2noc(C3CN(S(=O)(=O)C(F)F)C3)n2)ccc1F)c1cnc2ccccn12` [F223] it is 0.151 µM.
Still for that read-out and setting: the figure for `Cc1ccc(-c2noc([C@H]3CCCN3)n2)cc1NC(=O)c1cnc2ccccn12` [F200] is 0.395 µM.
Still for that read-out and setting: in the case of `Cc1ccc(-c2noc(C3CN(S(=O)(=O)C4CCN(C(=O)OC(C)(C)C)CC4)C3)n2)cc1NC(=O)c1cnc2ccccn12` [F163] it was 0.185 µM; in that of `Cn1cc(S(=O)(=O)N2CC(c3nc(-c4ccc(F)c(NC(=O)c5cnc6ccccn56)c4)no3)C2)cn1` [F224], 0.854 µM.
`Cc1cc(F)c(-c2noc(C3CN(C(=O)OC(C)(C)C)C3)n2)cc1NC(=O)c1cnc2ccccn12` [F279]: the IC50 is 1.28 µM.
Same read-out and setting: the figure for `Cc1ccc(-c2noc(C[C@@H]3CCCN3)n2)cc1NC(=O)c1cnc2ccccn12` [F216] is 0.519 µM; for `Cc1ccc(-c2noc([C@@H]3CCCNC3)n2)cc1NC(=O)c1cnc2ccccn12` [F203] it is 0.826 µM; for `COC(=O)N1CC[C@H]1c1nc(-c2ccc(C)c(NC(=O)c3cnc4ccc(C)cn34)c2)no1` [F262] it is 0.309 µM.
Still for that read-out and setting: in the case of `Cc1ccc(-c2noc(C3CCN(C(=O)OC(C)(C)C)C3)n2)cc1NC(=O)c1cnc2ccccn12` (stereo not shown) [F107] it was 0.912 µM; in that of `COC(=O)N1CC(Cc2nc(-c3ccc(C)c(NC(=O)c4cnc5ccccn45)c3)no2)C1` [F177], 0.398 µM.
Still for that read-out and setting: the figure for `Cc1ccc(-c2noc([C@@H](C)N3CCC(F)(F)C3)n2)cc1NC(=O)c1cnc2ccccn12` [F227] is 0.119 µM; for `Cc1ccc(-c2noc(CNC(=O)N3CCOCC3)n2)cc1NC(=O)c1cnc2ccccn12` [F292] it is 1.93 µM; for `Cc1ccc(-c2noc([C@H]3C[C@@H](O)CN3)n2)cc1NC(=O)c1cnc2ccc(F)cn12` [F302] it is 4.33 µM.
On to `Cc1ccc(-c2noc(C3CN(C(=O)OC4(C)CC4)C3)n2)cc1NC(=O)c1cnc2ccccn12` [F126], for which the IC50 is 0.891 µM.
For the compound `Cc1ccc(-c2noc(N3CCC3)n2)cc1NC(=O)c1cnc2ccccn12` [F248], the IC50 worked out at 0.132 µM.

Still in this assay, the particulars now being: c-kit (Mo7e) μM, Table 1; human Mo7e cells stimulated with SCF, 48 hours, CellTiter Glo; 1% FBS.
`Cc1ccc(-c2noc(C3CCC(F)(F)CO3)n2)cc1NC(=O)c1cnc2ccccn12` (stereo not shown) [F10, N-(5-(5-(5,5-difluorotetrahydro-2H-pyran-2-yl)-1,2,4-oxadiazol-3-yl)-2-methylphenyl)imidazo[1,2-a]pyridine-3-carboxamide] returned an IC50 of 0.023 µM.

Source of the values: patent publication US8754071B2 (priority 2011, dated 2014).
